Source: US20080268535A1, “Method for Inducing the Differentiation of Human Myelogenous Leukemia Cells Into Megakarocytes or Thrombocytes” (EWHA University - Industry Collaboration Foundation, priority 2005, published 2008)

Tests used:
Assay type in all cases: cell-based, human
K562 cells [1] = test: MTT cytotoxicity assay of (R)-NALPCE; settings: 10 to 50 μg/ml, 48 hrs incubation
Description: In order to examine whether the compound (R)-NALPCE is toxic to cells, MTT (3-[4,5-dimethylthiazol-2-yl]-2,5-diphenyltetrazolium bromide) assay was conducted in K562 cells which are the leukemia cells derived from human bone marrow. These cells were aliquoted at a density of 4×10^4 cells per well in 96-well plates and treated with various concentrations of (R)-NALPCE, followed by incubation for 48 hrs. Thereafter, an MTT solution was added in an amount of 20 μl to each well. Incubation at 37° C. for 4 hrs, treatment with a 20% sodium dodecyl sulfate (SDS) solution (in an equivolume mixture of N,N-dimethylformamide and distilled water), and incubation at 37° C. for 16 hrs were sequentially conducted in that order before the absorbance at 570 nm was read using an ELISA reader (Bio-Tek Instrument, Winiiski, Vt.). The assay was conducted in triplicate.

HEL cells = test: Differentiation inductivity, lineage receptor expression by FACS, HEL cells; settings: 5 μg/ml (R)-NALPCE 5 days or 10 nM PMA 3 days
Description: HEL cells were aliquoted at a density of 3×10^5 cells per well in 6-well plates and treated separately with 5 μg/ml of (R)-NALPCE and 10 nM of 12-phorbol myristate-13-acetate (PMA) (Calbiochem.), followed by incubation for 5 and 3 days, respectively. After centrifugation (1,000 rpm, 10 min), cell pellets thus obtained were washed three times with 0.01% bovine serum albumin (BSA) in PBS and incubated with 10 μl of anti-CD61-fluorescein-5-isothiocyanate (FITC) (Dako Chemicals, Carpenteria, Calif.), 20 μl of anti-CD16-Cy-Chrome (Cy) (BD Pharmingen), 10 μl of anti-glycophorin ACD235a-phycoerythrin (PE) (Dako Chemicals, Carpenteria, Calif.), and 20 μl of anti-CD14-allophycocyanin (APC) (BD Pharmingen) in 200 μl of 0.01% bovine serum albumin (BSA)-PBS at 4° C. for 50 min with spinning so as to achieve homogenous fluorescent staining over the cells. After centrifugation (1,000 rpm, 10 min), the cell pellets thus obtained were washed three times with 0.01% bovine serum albumin (BSA) in PBS. Fluorescence was analyzed on a fluorescence-activated cell sorter (FACS) (Aria) using a Cellquest program.

K562 cells [2] = test: Cell differentiation of K562 cells on OP9 cells, optical microscopy
Description: A stromal line of OP9 cells derived from […] was aliquoted at a density of 1×10^5 cells in 6-well plates and incubated for 24 hrs. After the OP9 cells were uniformly attached onto the bottom of the plates, K562 cells were layered at a density of 1×10^5 cells on the OP9 cells in 6-well plates. The cells were treated with 40 μg/ml of (R)-NALPCE, or 500 pmole, 10 nmole or 50 nmole of PMA before incubation for 5 days. They were observed under an optical microscope with 200× magnification.

K562 cells [3] = test: Transmission electron microscopy of cells differentiated from K562 cells on OP9 cells; settings: 40 μg/ml, 5 days
Description: OP9 cells were aliquoted at a density of 1×10^5 cells in 6-well plates and incubated for 24 hrs. After the OP9 cells were uniformly attached onto the bottom of the plates, K562 cells were layered at a density of 1×10^5 cells over the OP9 cells in 6-well plates. The cells were treated with 40 μg/ml of (R)-NALPCE before incubation for 5 days. Following centrifugation (1,000 rpm, 5 min), the cells were pre-fixed with 2.5% glutaraldehyde in PBS (pH 7.4) for 24 hrs. Thereafter, cell pellets obtained by centrifugation (4,000 rpm, 10 min) were fixed for 1 hr with 1% osmium tetraoxide in 0.1 M PBS (pH 7.4). After being washed with PBS, the post-fixed samples were dehydrated with 60, 70, 80, 90, and 95% ethanol for 10 min each and then twice with 100% ethanol for 10 min each, and embedded in epoxy resin. The embedded samples were sectioned into slices 1 μm thick using an ultramicrotome diamond knife (Richert-Jung, U.S.A.) and stained with 1% toluidine blue for optical microscopy. Separately, ultra-thin sections ranging in thickness from 60 to 70 nm were prepared and stained sequentially with 1-2% uranyl acetate and 1% lead citrate for transmission electron microscopy, in which electrons were accelerated at 75 kV using H-600 TEM (Hitachi, Japan).

K562 cells [4] = test: Active form of platelet-like cells secreted from differentiated K562 cells, fluorescence microscopy
Description: OP9 cells were aliquoted at a density of 1×10^5 cells per well in 6-well plates and incubated for 24 hrs. After the OP9 cells were uniformly attached onto the bottom of the plates, K562 cells were layered at a density of 1×10^5 cells over the OP9 cells in the 6-well plates. The cells were treated with 40 μg/ml of (R)-NALPCE before incubation in a day-dependent manner for 5 days. […] The platelet-like cells were separated from the megakaryocytes by centrifuging the differentiated K562 cells at 500 rpm for 20 min and further centrifuging the supernatant at 3,000 rpm for 10 min.
A morphological comparison was made between the platelet-like cells and the pre-existing blood platelets using fibrinogen-coated slides. General slides (POLY-PREP, Sigma, U.S.A.) were coated with 20 μg/ml of fibrinogen in PBS ((R)-NALPCE-treated group) or with 1% bovine serum albumin (control) in PBS, and then incubated at 37° C. for 2 hrs in a humid atmosphere. A suspension of the separated platelet-like cells and the pre-existing blood platelets in PBS was placed on the slides. […] A drop of a mounting solution was spotted on the slides, which were then covered with a coverslip before observation under a fluorescence microscope. […] The cells thus stained were very gently washed three times with PBS and observed using a fluorescence microscope (Axiovision, Zeiss) with 400× magnification.

SMILES: CCCCCCCCCCCCCCCCCC(=O)NC(COP(=O)([O-])OCC[N+](C)(C)C)C(=O)OC [(R)-NALPCE, N-steroyl-O-phosphocholine-D-serine methyl ester]
- cytotoxicity on K562 cells (MTT) (K562 cells [1]): does not exert cytotoxicity
- expression of CD61, CD235a, CD16 and CD14 receptors (HEL cells): CD61 and CD16 were specifically expressed
- production or secretion of thrombocytes by differentiated megakaryocytes (K562 cells [2]; (R)-NALPCE with OP9 cells, PMA treatment): released a lot of thrombocytes
- cell morphology (optical microscope) (K562 cells [2]; K562 cells on OP9 cells, 40 μg/ml, 5 days): increased in size in a time-dependent manner, and anucleate cells such as thrombocytes were observed
- maturity of megakaryocytes (TEM) (K562 cells [3]): have demarcation channels within which platelets are held
- morphology of released platelets (TEM) (K562 cells [3]): morphology similar to that of the pre-existing blood platelets
- polymorphonuclear megakaryocytes having at least two nuclei among the differentiated cells (K562 cells [3]; TEM): ≥ 40%
- appearance of anucleate platelet-like cells (K562 cells [4]; K562 cells on OP9 cells, 40 μg/ml, Day 5 after the treatment): a large number of anucleate platelet-like cells appeared
- activation of released anucleate cells (K562 cells [4]; fibrinogen-coated slides, activators ADP, epinephrine, AYPGFK, MnCl2): activated in the same manner as the pre-existing blood platelets
